Results published in the NIST ThermoML archive (doi:10.1021/je049671t).
Numbers after ± are expanded uncertainties.

Experiment: xn = mol fraction of the nth substance listed
Conditions: Liquid, Vibrating tube method

CC(C)C [2-methylpropane] + CCCC
Conditions	mass density [kg/m3]
240 K, 468.1 kPa, x2 = 0.5	626.35 ± 0.26
240 K, 481.6 kPa, x2 = 0.25	621.79 ± 0.26
240 K, 499 kPa, x2 = 0.75	631.33 ± 0.26
240 K, 989.5 kPa, x2 = 0.5	626.9 ± 0.27
240 K, 999.5 kPa, x2 = 0.25	622.36 ± 0.27
240 K, 1001 kPa, x2 = 0.75	631.85 ± 0.26
240 K, 1472.5 kPa, x2 = 0.5	627.41 ± 0.27
240 K, 1500.2 kPa, x2 = 0.75	632.38 ± 0.27
240 K, 1503.1 kPa, x2 = 0.25	622.9 ± 0.27
240 K, 1962.6 kPa, x2 = 0.5	627.92 ± 0.27
240 K, 2001.8 kPa, x2 = 0.25	623.43 ± 0.27
240 K, 2011.4 kPa, x2 = 0.75	632.88 ± 0.27
240 K, 2468.8 kPa, x2 = 0.5	628.43 ± 0.28
240 K, 2493.8 kPa, x2 = 0.25	623.95 ± 0.28
240 K, 2505.1 kPa, x2 = 0.75	633.43 ± 0.28
240 K, 2976.4 kPa, x2 = 0.5	628.95 ± 0.28
240 K, 2987.3 kPa, x2 = 0.25	624.47 ± 0.28
240 K, 3003.9 kPa, x2 = 0.75	633.91 ± 0.28
240 K, 3446 kPa, x2 = 0.5	629.43 ± 0.29
240 K, 3481.8 kPa, x2 = 0.25	624.99 ± 0.29
240 K, 3507.2 kPa, x2 = 0.75	634.38 ± 0.29
240 K, 3970.1 kPa, x2 = 0.25	625.5 ± 0.29
240 K, 3982.7 kPa, x2 = 0.5	629.98 ± 0.29
240 K, 4015.3 kPa, x2 = 0.75	634.92 ± 0.29
240 K, 4467.2 kPa, x2 = 0.5	630.47 ± 0.3
240 K, 4485.6 kPa, x2 = 0.25	626.03 ± 0.3
240 K, 4509.6 kPa, x2 = 0.75	635.35 ± 0.29
240 K, 4983.6 kPa, x2 = 0.5	630.99 ± 0.3
240 K, 5011.3 kPa, x2 = 0.75	635.85 ± 0.3
240 K, 5024.9 kPa, x2 = 0.25	626.58 ± 0.3
240 K, 5486.4 kPa, x2 = 0.5	631.5 ± 0.31
240 K, 5515.8 kPa, x2 = 0.75	636.31 ± 0.3
240 K, 5519.2 kPa, x2 = 0.25	627.11 ± 0.31
240 K, 5981.2 kPa, x2 = 0.5	631.99 ± 0.31
240 K, 6023.5 kPa, x2 = 0.75	636.82 ± 0.31
240 K, 6067.5 kPa, x2 = 0.25	627.64 ± 0.31
240 K, 6486.1 kPa, x2 = 0.5	632.5 ± 0.31
240 K, 6492.4 kPa, x2 = 0.75	637.29 ± 0.31
240 K, 6517.4 kPa, x2 = 0.25	628.1 ± 0.32
240 K, 6977 kPa, x2 = 0.25	628.56 ± 0.32
240 K, 6981 kPa, x2 = 0.5	632.99 ± 0.32
240 K, 6991.5 kPa, x2 = 0.75	637.75 ± 0.32
260 K, 496.3 kPa, x2 = 0.75	610.36 ± 0.26
260 K, 503.7 kPa, x2 = 0.25	600.66 ± 0.27
260 K, 503.9 kPa, x2 = 0.5	605.31 ± 0.27
260 K, 979.3 kPa, x2 = 0.25	601.29 ± 0.27
260 K, 993.2 kPa, x2 = 0.75	610.92 ± 0.27
260 K, 1011.2 kPa, x2 = 0.5	605.96 ± 0.27
260 K, 1489.5 kPa, x2 = 0.75	611.52 ± 0.27
260 K, 1490.8 kPa, x2 = 0.25	601.97 ± 0.28
260 K, 1508.9 kPa, x2 = 0.5	606.59 ± 0.28
260 K, 2002.5 kPa, x2 = 0.75	612.18 ± 0.28
260 K, 2003.1 kPa, x2 = 0.25	602.64 ± 0.28
260 K, 2010.9 kPa, x2 = 0.5	607.22 ± 0.28
260 K, 2507.6 kPa, x2 = 0.5	607.84 ± 0.28
260 K, 2510.1 kPa, x2 = 0.75	612.77 ± 0.28
260 K, 2511.6 kPa, x2 = 0.25	603.29 ± 0.29
260 K, 2993.6 kPa, x2 = 0.5	608.43 ± 0.29
260 K, 2999.7 kPa, x2 = 0.25	603.92 ± 0.29
260 K, 3016.5 kPa, x2 = 0.75	613.4 ± 0.29
260 K, 3495.3 kPa, x2 = 0.75	613.93 ± 0.29
260 K, 3505.2 kPa, x2 = 0.25	604.56 ± 0.3
260 K, 3514 kPa, x2 = 0.5	609.08 ± 0.29
260 K, 3991.1 kPa, x2 = 0.5	609.66 ± 0.3
260 K, 4009.7 kPa, x2 = 0.75	614.5 ± 0.3
260 K, 4014.1 kPa, x2 = 0.25	605.19 ± 0.3
260 K, 4508.9 kPa, x2 = 0.5	610.27 ± 0.3
260 K, 4519.2 kPa, x2 = 0.75	615.15 ± 0.3
260 K, 4521 kPa, x2 = 0.25	605.82 ± 0.31
260 K, 5018.2 kPa, x2 = 0.75	615.65 ± 0.31
260 K, 5023.4 kPa, x2 = 0.25	606.44 ± 0.31
260 K, 5026.4 kPa, x2 = 0.5	610.89 ± 0.31
260 K, 5506.4 kPa, x2 = 0.25	607.02 ± 0.32
260 K, 5512.2 kPa, x2 = 0.75	616.21 ± 0.31
260 K, 5517.9 kPa, x2 = 0.5	611.47 ± 0.31
260 K, 6004.4 kPa, x2 = 0.75	616.79 ± 0.32
260 K, 6023 kPa, x2 = 0.5	612.08 ± 0.32
260 K, 6028.5 kPa, x2 = 0.25	607.65 ± 0.32
260 K, 6519.2 kPa, x2 = 0.25	608.25 ± 0.33
260 K, 6526.2 kPa, x2 = 0.75	617.32 ± 0.32
260 K, 6531.1 kPa, x2 = 0.5	612.67 ± 0.32
260 K, 6987.3 kPa, x2 = 0.5	613.2 ± 0.33
260 K, 7000.3 kPa, x2 = 0.25	608.81 ± 0.33
260 K, 7024.3 kPa, x2 = 0.75	617.88 ± 0.33
280 K, 491.4 kPa, x2 = 0.25	578.14 ± 0.27
280 K, 494.5 kPa, x2 = 0.75	588.49 ± 0.27
280 K, 514.1 kPa, x2 = 0.5	583.32 ± 0.27
280 K, 997.4 kPa, x2 = 0.5	584.09 ± 0.28
280 K, 997.5 kPa, x2 = 0.25	578.99 ± 0.28
280 K, 997.9 kPa, x2 = 0.75	589.24 ± 0.27
280 K, 1496 kPa, x2 = 0.25	579.79 ± 0.28
280 K, 1499.8 kPa, x2 = 0.75	590.03 ± 0.28
280 K, 1515.6 kPa, x2 = 0.5	584.89 ± 0.28
280 K, 1990.8 kPa, x2 = 0.5	585.62 ± 0.29
280 K, 1991.8 kPa, x2 = 0.75	590.76 ± 0.28
280 K, 2009.2 kPa, x2 = 0.25	580.63 ± 0.29
280 K, 2501 kPa, x2 = 0.75	591.51 ± 0.29
280 K, 2510.6 kPa, x2 = 0.5	586.43 ± 0.29
280 K, 2512.7 kPa, x2 = 0.25	581.42 ± 0.29
280 K, 3001.9 kPa, x2 = 0.75	592.24 ± 0.29
280 K, 3016.2 kPa, x2 = 0.5	587.2 ± 0.3
280 K, 3023 kPa, x2 = 0.25	582.23 ± 0.3
280 K, 3506.9 kPa, x2 = 0.25	582.98 ± 0.3
280 K, 3511.3 kPa, x2 = 0.75	592.97 ± 0.3
280 K, 3532.6 kPa, x2 = 0.5	587.97 ± 0.3
280 K, 4008 kPa, x2 = 0.25	583.74 ± 0.31
280 K, 4010.5 kPa, x2 = 0.75	593.64 ± 0.3
280 K, 4012.8 kPa, x2 = 0.5	588.67 ± 0.31
280 K, 4502.1 kPa, x2 = 0.75	594.34 ± 0.31
280 K, 4504.4 kPa, x2 = 0.25	584.53 ± 0.31
280 K, 4508.3 kPa, x2 = 0.5	589.4 ± 0.31
280 K, 4994.2 kPa, x2 = 0.75	595.02 ± 0.31
280 K, 5006.3 kPa, x2 = 0.25	585.27 ± 0.32
280 K, 5025.7 kPa, x2 = 0.5	590.15 ± 0.32
280 K, 5479.3 kPa, x2 = 0.5	590.82 ± 0.32
280 K, 5523.8 kPa, x2 = 0.25	586.04 ± 0.32
280 K, 5525.5 kPa, x2 = 0.75	595.77 ± 0.32
280 K, 5942.8 kPa, x2 = 0.75	596.37 ± 0.32
280 K, 5993.3 kPa, x2 = 0.5	591.55 ± 0.33
280 K, 6024.7 kPa, x2 = 0.25	586.78 ± 0.33
280 K, 6475.5 kPa, x2 = 0.75	597.09 ± 0.33
280 K, 6510.8 kPa, x2 = 0.25	587.5 ± 0.34
280 K, 6528.5 kPa, x2 = 0.5	592.3 ± 0.33
280 K, 6953.9 kPa, x2 = 0.5	592.89 ± 0.34
280 K, 6984.1 kPa, x2 = 0.25	588.18 ± 0.34
280 K, 7039.4 kPa, x2 = 0.75	597.8 ± 0.34
300 K, 312 kPa, x2 = 0.5	559.4 ± 0.28
300 K, 502.9 kPa, x2 = 0.25	554.17 ± 0.28
300 K, 505.7 kPa, x2 = 0.75	565.16 ± 0.28
300 K, 510.2 kPa, x2 = 0.5	559.82 ± 0.28
300 K, 983.9 kPa, x2 = 0.5	560.78 ± 0.28
300 K, 999.4 kPa, x2 = 0.25	555.23 ± 0.28
300 K, 1002.4 kPa, x2 = 0.75	566.11 ± 0.28
300 K, 1493 kPa, x2 = 0.75	567.04 ± 0.29
300 K, 1497.1 kPa, x2 = 0.25	556.26 ± 0.29
300 K, 1509.8 kPa, x2 = 0.5	561.83 ± 0.29
300 K, 1992.8 kPa, x2 = 0.5	562.77 ± 0.29
300 K, 1997.4 kPa, x2 = 0.25	557.29 ± 0.29
300 K, 2007.5 kPa, x2 = 0.75	568 ± 0.29
300 K, 2498.6 kPa, x2 = 0.25	558.33 ± 0.3
300 K, 2510.2 kPa, x2 = 0.75	568.9 ± 0.3
300 K, 2513.9 kPa, x2 = 0.5	563.78 ± 0.3
300 K, 2995.9 kPa, x2 = 0.75	569.79 ± 0.3
300 K, 3011.4 kPa, x2 = 0.5	564.72 ± 0.3
300 K, 3014 kPa, x2 = 0.25	559.36 ± 0.31
300 K, 3476.1 kPa, x2 = 0.5	565.59 ± 0.31
300 K, 3483.6 kPa, x2 = 0.75	570.68 ± 0.31
300 K, 3510.6 kPa, x2 = 0.25	560.33 ± 0.31
300 K, 3988.4 kPa, x2 = 0.5	566.54 ± 0.31
300 K, 4007.7 kPa, x2 = 0.25	561.28 ± 0.32
300 K, 4013.5 kPa, x2 = 0.75	571.62 ± 0.31
300 K, 4453.4 kPa, x2 = 0.5	567.4 ± 0.32
300 K, 4467 kPa, x2 = 0.75	572.38 ± 0.32
300 K, 4513.9 kPa, x2 = 0.25	562.25 ± 0.32
300 K, 4997.8 kPa, x2 = 0.75	573.31 ± 0.32
300 K, 5016.3 kPa, x2 = 0.25	563.17 ± 0.33
300 K, 5026.1 kPa, x2 = 0.5	568.4 ± 0.33
300 K, 5472.7 kPa, x2 = 0.5	569.19 ± 0.33
300 K, 5473.2 kPa, x2 = 0.75	574.11 ± 0.33

mass density [kg/m3]
Conditions	240 K	260 K	280 K
x2 = 0.25	621.33 ± 0.26	600.04 ± 0.26	577.61 ± 0.27
x2 = 0.5	625.96 ± 0.26	604.76 ± 0.26	582.79 ± 0.27
x2 = 0.75	630.89 ± 0.26	609.84 ± 0.26	588.07 ± 0.27
